Data: the supplement of paper PMC11208160

Experiment: recombinant barcode read abundance after kanamycin selection (control-corrected) (log10(CPM+1)); higher = more efficient recombination; sequences stand for … in AGTGCAGAGAAAATCGGCCAGTTTTCTCTGCCTGCAGTCCGCATGCCGT…AGATTTATGCAGCGGACTGCCTTTCTCCCAAAGTGATAAACCGGACAGTATCATGGACCGGTTTTCCCGGTAATCCGTATTTGCAAGGTTGGTTTCACT; site = the 11-nt target
Outline: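 In a pooled screen in E. coli, targets were paired with target-binding loops of the IS621 bridge RNA. Each oligo carried a promoter, a target, a barcode and the first 104 bridge RNA bases driven by J23119, and was Gibson-cloned into a vector holding the remaining 73 bp and a T7-inducible recombinase before co-electroporation with a donor plasmid. Duplicate platings went onto chloramphenicol/ampicillin LB agar as the control or onto chloramphenicol/ampicillin/kanamycin with 0.1 mM IPTG. Recombination efficiency is the averaged, control-corrected count per million of barcodes at recombinant junctions, given as log10(CPM+1).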
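Further: IS621 recombinase and bridge RNA in Escherichia coli cells.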

Sequence	recombinant barcode read abundance (log10)
TAACGTACTTGGGTTCTAACCTGTTGCGG (site TAACGTACTCC)	1.41
TAACGTACTTGGGTTCTAACCTGTTGCGG (site TAACGTCCTAC)	0.113
TAACTCTCTTGGGTTCTAACCTGTTGCCT (site TAACTCTCTAG)	1.05
TAACTCTCTTGGGTTCTAACCTGTTGCCT (site TCACTCTCTAG)	0.0372
TAACTCTCTTGGGTTCTAACCTGTTGCCT (site TGACTCTCTAG)	0.0157
TAACTCTCTTGGGTTCTAACCTGTTGCCT (site TTACTCTCTAG)	0.145
TAACTGTCTTGGGTTCTAACCTGTTGCTT (site CCGTCTACTTG)	0.121
TAACTGTCTTGGGTTCTAACCTGTTGCTT (site TAACTGTCTAA)	1.74
TAACTTACTTGGGTTCTAACCTGTTGCCT (site TAACTTACTAG)	0.185
TAACTTACTTGGGTTCTAACCTGTTGCCT (site TAGCTTACTCG)	0.0408
TAAGCCTCTTGGGTTCTAACCTGTTGCTG (site TAAGCCTCTCA)	2.54
TAAGCCTCTTGGGTTCTAACCTGTTGCTG (site TAAGCTACTCA)	0
TAAGGTCCTTGGGTTCTAACCTGTTGCTA (site GGAGGTCCTTA)	0.0326
TAAGGTCCTTGGGTTCTAACCTGTTGCTA (site TAAGGTCCTTA)	1.81
TAATCGGCTTGGGTTCTAACCTGTTGCCT (site TAATCGACTAG)	0.0571
TAATCGGCTTGGGTTCTAACCTGTTGCCT (site TAATCGCCTAG)	0.0352
TAATCGGCTTGGGTTCTAACCTGTTGCCT (site TAATCGGCTAG)	0.453
TAATCGGCTTGGGTTCTAACCTGTTGCCT (site TAATCGTCTAG)	0.111
TAATCGTCTTGGGTTCTAACCTGTTGCCT (site TAATCGACTAG)	0.0844
TAATCGTCTTGGGTTCTAACCTGTTGCCT (site TAATCGCCTAG)	0.0275
TAATCGTCTTGGGTTCTAACCTGTTGCCT (site TAATCGGCTAG)	0.0826
TAATCGTCTTGGGTTCTAACCTGTTGCCT (site TAATCGTCTAG)	1.84

Sequence	recombinant barcode read abundance (log10)
TAATGATCTTGGGTTCTAACCTGTTGCCT (site TAATGATCTAG)	0.635
TAATGATCTTGGGTTCTAACCTGTTGCCT (site TACTGATCTAG)	0.0744
TAATGATCTTGGGTTCTAACCTGTTGCCT (site TAGTGATCTAG)	0.15
TAATGATCTTGGGTTCTAACCTGTTGCCT (site TATTGATCTAG)	0.155
TAATGCCCTTGGGTTCTAACCTGTTGCCT (site TAATGCCCTAG)	0.634
TAATGCCCTTGGGTTCTAACCTGTTGCCT (site TATTGCCCTAG)	0.13
TAATGTTCTTGGGTTCTAACCTGTTGCAT (site TAATGGTCTAT)	0.0924
TAATGTTCTTGGGTTCTAACCTGTTGCAT (site TAATGTTCTAT)	1.14
TAATTGTCTTGGGTTCTAACCTGTTGCGT (site CAATTGTCTAC)	0.725
TAATTGTCTTGGGTTCTAACCTGTTGCGT (site TAATTGTCTAC)	2.45
TAATTTGCTTGGGTTCTAACCTGTTGCCT (site CGCGAGTCTCA)	0.215
TAATTTGCTTGGGTTCTAACCTGTTGCCT (site TAATTTGCTAG)	0.182
TACAAGCCTTGGGTTCTAACCTGTTGCGG (site TACAAGCCTCC)	1.91
TACAAGCCTTGGGTTCTAACCTGTTGCGG (site TACAAGTCTCT)	0.051
TACAAGTCTTGGGTTCTAACCTGTTGCAG (site TACAAGCCTCC)	0.11
TACAAGTCTTGGGTTCTAACCTGTTGCAG (site TACAAGTCTCT)	1.47
TACACTACTTGGGTTCTAACCTGTTGCAT (site TACACTACTAT)	0.131
TACACTACTTGGGTTCTAACCTGTTGCAT (site TACCCTACTAT)	0.134
TACAGACCTTGGGTTCTAACCTGTTGCAG (site ACGGAGTCTTA)	0.128
TACAGACCTTGGGTTCTAACCTGTTGCAG (site TACAGACCTCT)	1.28
TACAGTCCTTGGGTTCTAACCTGTTGCCT (site TACAGTCCTAG)	1.06
TACAGTCCTTGGGTTCTAACCTGTTGCCT (site TGCACTCCTAG)	0.276

Sequence	recombinant barcode read abundance (log10)
TACCACTCTTGGGTTCTAACCTGTTGCCT (site AACCACTCTAG)	0.335
TACCACTCTTGGGTTCTAACCTGTTGCCT (site CACCACTCTAG)	0.887
TACCACTCTTGGGTTCTAACCTGTTGCCT (site GACCACTCTAG)	0.13
TACCACTCTTGGGTTCTAACCTGTTGCCT (site TACCACTCTAG)	2.24
TACCAGTCTTGGGTTCTAACCTGTTGCTT (site TACCAGTCTAA)	1.74
TACCAGTCTTGGGTTCTAACCTGTTGCTT (site TACCCGTCTAA)	0.0102
TACCAGTCTTGGGTTCTAACCTGTTGCTT (site TACCGGTCTAA)	0.293
TACCAGTCTTGGGTTCTAACCTGTTGCTT (site TACCTGTCTAA)	0.111
TACCCGCCTTGGGTTCTAACCTGTTGCTA (site TACCCGCCTTA)	0.59
TACCCGCCTTGGGTTCTAACCTGTTGCTA (site TACCCTACTTA)	0.066
TACCCGTCTTGGGTTCTAACCTGTTGCTT (site TACCAGTCTAA)	0
TACCCGTCTTGGGTTCTAACCTGTTGCTT (site TACCCGTCTAA)	0.399
TACCCGTCTTGGGTTCTAACCTGTTGCTT (site TACCGGTCTAA)	0.168
TACCCGTCTTGGGTTCTAACCTGTTGCTT (site TACCTGTCTAA)	0.0134
TACCGGCCTTGGGTTCTAACCTGTTGCTT (site TACCGGACTAC)	0.0691
TACCGGCCTTGGGTTCTAACCTGTTGCTT (site TACCGGCCTAA)	0.444
TACCTACCTTGGGTTCTAACCTGTTGCGA (site ATAACTACTAA)	0.0536
TACCTACCTTGGGTTCTAACCTGTTGCGA (site TACCTACCTTC)	1.92
TACCTATCTTGGGTTCTAACCTGTTGCGT (site TACCTAGCTAC)	0.0617
TACCTATCTTGGGTTCTAACCTGTTGCGT (site TACCTATCTAC)	1.83
TACGAACCTTGGGTTCTAACCTGTTGCGT (site TACGAACCTAC)	2.94
TACGAACCTTGGGTTCTAACCTGTTGCGT (site TAGGAGCCTAC)	0.335

Sequence	recombinant barcode read abundance (log10)
TACGCCTCTTGGGTTCTAACCTGTTGCTA (site TACGCCTCTTA)	1.31
TACGCCTCTTGGGTTCTAACCTGTTGCTA (site TGCGCCTCTCA)	0.299
TACGGGGCTTGGGTTCTAACCTGTTGCCT (site TACGAGGCTAG)	0.166
TACGGGGCTTGGGTTCTAACCTGTTGCCT (site TACGCGGCTAG)	0.139
TACGGGGCTTGGGTTCTAACCTGTTGCCT (site TACGGGGCTAG)	0.572
TACGGGGCTTGGGTTCTAACCTGTTGCCT (site TACGTGGCTAG)	0.414
TACGGGTCTTGGGTTCTAACCTGTTGCCT (site AAGGGGTCTAG)	0.0993
TACGGGTCTTGGGTTCTAACCTGTTGCCT (site TACGGGTCTAG)	1.16
TACTAAACTTGGGTTCTAACCTGTTGCCT (site TACTAAACTAG)	0.267
TACTAAACTTGGGTTCTAACCTGTTGCCT (site TACTCAACTAG)	0.0276
TACTAAACTTGGGTTCTAACCTGTTGCCT (site TACTGAACTAG)	0.0606
TACTAAACTTGGGTTCTAACCTGTTGCCT (site TACTTAACTAG)	0.00687
TACTAAGCTTGGGTTCTAACCTGTTGCAT (site TACTAAGCTAA)	0.149
TACTAAGCTTGGGTTCTAACCTGTTGCAT (site TACTAAGCTAC)	0.0997
TACTAAGCTTGGGTTCTAACCTGTTGCAT (site TACTAAGCTAG)	0.274
TACTAAGCTTGGGTTCTAACCTGTTGCAT (site TACTAAGCTAT)	0.523
TACTAAGCTTGGGTTCTAACCTGTTGCGT (site TACTAAGCTAA)	0.238
TACTAAGCTTGGGTTCTAACCTGTTGCGT (site TACTAAGCTAC)	1.1
TACTAAGCTTGGGTTCTAACCTGTTGCGT (site TACTAAGCTAG)	0.122
TACTAAGCTTGGGTTCTAACCTGTTGCGT (site TACTAAGCTAT)	0.149
